Source: patent publication US20240360148A1 (SUVALENT THERAPEUTICS, INC., priority 2021, published 2024)

Tested on: sumoylation levels (SUMO 2/3 conjugates) in HCT-116 cells
Experiment: HCT-116 4 Hour Cell Assay (Western, SUMO 2/3 conjugates)
Type: cell-based
Conditions: Homo sapiens, HCT-116, 4 h, 4 h treatment, Anti-Sumo 2-3 immunoblot, read-out: HCT-116 Western 4 h IC50 (μM) Ave
Outline: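 IC50 derived from fluorescent immunoblot quantification of SUMO 2/3 conjugate bands, normalized to total protein, after non-reducing SDS-PAGE. Lysis used RIPA plus NEM; exposure was 4 h across 11 concentrations, three-fold serial dilution starting at 25 μM.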

Row | IC50 [µM] | Structure (SMILES)
1 | 0.0974 | C=CC(=O)N1Cc2sc(C#N)c(C)c2[C@H](c2cccc(F)c2-c2cn(CC)nc2C(F)(F)F)C1 [Compound 222]
2 | 0.0953 | CCn1cc(-c2c(F)cccc2[C@@H]2CN(C(=O)/C=C/CN(C)C)Cc3sc(C#N)c(C)c32)c(C(F)(F)F)n1 [Example 46, (S, E)-6-(4-(dimethylamino)but-2-enoyl)-4-(2-(1-ethyl-3-(trifluoromethyl)-1 H-pyrazol-4-yl)-3-fluorophenyl)-3-methyl-4,5,6,7-tetrahydrothieno[2,3-c]pyridine-2-carbonitrile]
3 | 0.157 | CCn1cc(-c2c(F)cccc2[C@@H]2CN(C(=O)/C=C/CNC)Cc3sc(C#N)cc32)c(C(F)(F)F)n1 [Example 50]
